{"source": "patent US12195413B2", "about": "“Ethynyl derivatives” (Hoffmann-La Roche Inc., priority 2015, dated 2025)", "assay": "rat Vogel conflict drinking test", "format": "in vivo", "data": [{"compound": "CN1C(=O)N(c2ccc(C#Cc3ccccc3)cn2)[C@@H]2CC[C@@H]21", "note": "[Example 1, (−)-(1S,5R)-2-methyl-4-(5-(phenylethynyl)pyridin-2-yl)-2,4-diazabicyclo[3.2.0]heptan-3-one]", "values": [{"measurement": "anxiolytic activity, minimal effective dose", "result": 0.1, "unit": "mg/kg"}]}]}
